Assays:
[1] = system: MDA-MB-231 cells; test: Cell proliferation assay (CellTiter-Glo), MDA-MB-231; assay type: cell-based; settings: Homo sapiens, MDA-MB-231, 72 h, 72 h treatment, Celltiter-Glo luminescence
Outline: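 Compounds tested over ten concentrations ([…]) for 72 h on EVSA-T cells in MEM/10% FBS and MDA-MB-231 cells in RPMI-1640/10% FBS, seeded at 10000/well. Luminescent CellTiter-Glo readout; IC50 fitted after normalisation to controls.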

[2] = system: EVSA-T cells; test: Cell proliferation assay (CellTiter-Glo), EVSA-T; assay type: cell-based; settings: Homo sapiens, EVSA-T, 72 h, 72 h treatment, Celltiter-Glo luminescence
Experimental: Example 238: Cell Proliferation Assay
MDA-MB-231 and EVSA-T cells (10000 cells/well) were plated onto 96-well plates (Corning, Cat #3917) in 95 μL of medium (RPMI-1640 containing 10% FBS and MEM containing 10% FBS, respectively). Compounds with various concentrations ([…]) were added to the wells. After treatment for 72 h, 30 μL of Celltiter-Glo reagent (Promega, Cat #G7573) was added and incubated at room temperature for 15 min, then the luminescent signal was determined using a microplate reader (Biotek, SynergyH1). The inhibitor dose-response curves were analyzed using normalized IC50 regression curve fitting with control based normalization.

Structure (SMILES) | IC50 [1] [nM] | IC50 [2] [nM]
C[C@@H]1CN(CC(=O)N2CC(C)(C)c3c2cc(Cc2ccc(F)cc2)c2nn(CC4(O)CCC4)c(=O)n32)[C@@H](CN2CCOC[C@H]2C)CN1 [Compound 262, 4-(4-fluorobenzyl)-2-((1-hydroxycyclobutyl)methyl)-8,8-dimethyl-6-(2-((2R,5R)-5-methyl-2-(((R)-3-methylmorpholino)methyl)piperazin-1-yl)acetyl)-2,6,7,8-tetrahydro-1H-pyrrolo[2,3-e][1,2,4]triazolo[4,3-a]pyridin-1-one] | 12.5 | 1.3
C[C@@H]1CN(CC(=O)N2CC(C)(C)c3c2cc(Cc2ccc(F)cc2)c2nncn32)[C@@H](CN2CCOC[C@H]2C)CN1 [Example 9, 1-(4-(4-fluorobenzyl)-8,8-dimethyl-7,8-dihydro-6H-pyrrolo[2,3-e][1,2,4]triazolo[4,3-a]pyridin-6-yl)-2-((2R,5R)-5-methyl-2-(((R)-3-methylmorpholino)methyl)piperazin-1-yl)ethan-1-one] | 530 | 18
CC(C)c1nnc2c(Cc3ccc(F)cc3)cc3c(n12)C(C)(C)CN3C(=O)CN1C[C@@H](C)NC[C@@H]1CN1CCOC[C@H]1C [Example 11, 1-(4-(4-fluorobenzyl)-1-isopropyl-8,8-dimethyl-7,8-dihydro-6H-pyrrolo[2,3-e][1,2,4]triazolo[4,3-a]pyridin-6-yl)-2-((2R,5R)-5-methyl-2-(((R)-3-methylmorpholino)methyl)piperazin-1-yl)ethan-1-one] | 170 | 10
C[C@@H]1CN(CC(=O)N2CC(C)(C)c3c2cc(Cc2ccc(F)cc2)c2ncnn32)[C@@H](CN2CC3CCC2CO3)CN1 (stereo partly drawn) [Compound 214, 2-((2R,5R)-2-((2-oxa-5-azabicyclo[2.2.2]octan-5-yl)methyl)-5-methylpiperazin-1-yl)-1-(4-(4-fluorobenzyl)-8,8-dimethyl-7,8-dihydro-6H-pyrrolo[2,3-e][1,2,4]triazolo[1,5-a]pyridin-6-yl)ethan-1-one] | 49 | 8
C[C@@H]1CN(CC(=O)N2CC(C)(C)c3c2cc(Cc2ccc(F)cc2)c2nc(C(F)(F)F)cn32)[C@@H](CN2[C@H](C)COC[C@H]2C)CN1 [Compound 161, 2-((2R,5R)-2-(((3R,5R)-3,5-dimethylmorpholino)methyl)-5-methylpiperazin-1-yl)-1-(4-(4-fluorobenzyl)-8,8-dimethyl-2-(trifluoromethyl)-7,8-dihydro-6H-imidazo[1,2-a]pyrrolo[2,3-e]pyridin-6-yl)ethan-1-one] | 120 | 30
C[C@@H]1CN(CC(=O)N2CC(C)(C)c3c2cc(Cc2ccc(F)cc2)c2nc(CN(C)C)nn32)[C@@H](CN2CCOC[C@H]2C)CN1 [Compound 212, 1-(2-((dimethylamino)methyl)-4-(4-fluorobenzyl)-8,8-dimethyl-7,8-dihydro-6H-pyrrolo[2,3-e][1,2,4]triazolo[1,5-a]pyridin-6-yl)-2-((2R,5R)-5-methyl-2-(((R)-3-methylmorpholino)methyl)piperazin-1-yl)ethan-1-one] | 41 | 7
COC(=O)N(C)c1nc2c(Cc3ccc(F)cc3)cc3c(n2n1)C(C)(C)CN3C(=O)CN1C[C@@H](C)NC[C@@H]1CN1CCOC[C@H]1C [Compound 225, methyl (4-(4-fluorobenzyl)-8,8-dimethyl-6-(2-((2R,5R)-5-methyl-2-(((R)-3-methylmorpholino)methyl)piperazin-1-yl)acetyl)-7,8-dihydro-6H-pyrrolo[2,3-e][1,2,4]triazolo[1,5-a]pyridin-2-yl)(methyl)carbamate] | 50 | 2
C[C@@H]1CN(CC(=O)N2CC(C)(C)c3c2cc(Cc2ccc(F)cc2)c2nn(CC(C)(C)O)c(=O)n32)[C@@H](CN2CC3CCC(C2)O3)CN1 [Compound 265, 6-(2-((2R,5R)-2-((8-oxa-3-azabicyclo[3.2.1]octan-3-yl)methyl)-5-methylpiperazin-1-yl)acetyl)-4-(4-fluorobenzyl)-2-(2-hydroxy-2-methylpropyl)-8,8-dimethyl-2,6,7,8-tetrahydro-1H-pyrrolo[2,3-e][1,2,4]triazolo[4,3-a]pyridin-1-one] | 41 | 26.8
C[C@@H]1CN(CC(=O)N2CC(C)(C)c3c2cc(Cc2ccc(F)cc2)c2nc(CO)cn32)[C@@H](CN2CCOC[C@H]2C)CN1 [Example 19, 1-(4-(4-fluorobenzyl)-2-(hydroxymethyl)-8,8-dimethyl-7,8-dihydro-6H-imidazo[1,2-a]pyrrolo[2,3-e]pyridin-6-yl)-2-((2R,5R)-5-methyl-2-(((R)-3-methylmorpholino)methyl)piperazin-1-yl)ethan-1-one] | 180 | 21
C[C@@H]1CN(CC(=O)N2CC(C)(C)c3c2cc(Cc2ccc(F)cc2)c2nc(C#N)nn32)[C@@H](CN2CCOC[C@H]2C)CN1 [Compound 32, 4-(4-fluorobenzyl)-8,8-dimethyl-6-(2-((2R,5R)-5-methyl-2-(((R)-3-methylmorpholino)methyl)piperazin-1-yl)acetyl)-7,8-dihydro-6H-pyrrolo[2,3-e][1,2,4]triazolo[1,5-a]pyridine-2-carbonitrile] | 60 | 20
C[C@@H]1CN(CC(=O)N2CC(C)(C)c3c2cc(Cc2ccc(F)cc2)c2nn(C4COC4)c(=O)n32)[C@@H](CN2CCOC[C@H]2C)CN1 [Compound 210, 4-(4-fluorobenzyl)-8,8-dimethyl-6-(2-((2R,5R)-5-methyl-2-(((R)-3-methylmorpholino)methyl)piperazin-1-yl)acetyl)-2-(oxetan-3-yl)-2,6,7,8-tetrahydro-1H-pyrrolo[2,3-e][1,2,4]triazolo[4,3-a]pyridin-1-one] | 33 | 3
C[C@@H]1CN(CC(=O)N2CC(C)(C)c3c2cc(Cc2ccc(F)cc2)c2nn(Cc4ccncn4)c(=O)n32)[C@@H](CN2CCOC[C@H]2C)CN1 [Compound 246, 4-(4-fluorobenzyl)-8,8-dimethyl-6-(2-((2R,5R)-5-methyl-2-(((R)-3-methylmorpholino)methyl)piperazin-1-yl)acetyl)-2-(pyrimidin-4-ylmethyl)-2,6,7,8-tetrahydro-1H-pyrrolo[2,3-e][1,2,4]triazolo[4,3-a]pyridin-1-one] | 4 | 3.5
C[C@@H]1CN(CC(=O)N2CC(C)(C)c3c2cc(Cc2ccc(F)cc2)c2ncnn32)[C@@H](CN2Cc3ccc(F)cc3C2=O)CN1 [Compound 101, 6-fluoro-2-(((2R,5R)-1-(2-(4-(4-fluorobenzyl)-8,8-dimethyl-7,8-dihydro-6H-pyrrolo[2,3-e][1,2,4]triazolo[1,5-a]pyridin-6-yl)-2-oxoethyl)-5-methylpiperazin-2-yl)methyl)isoindolin-1-one] | 23 | 8
C[C@@H]1CN(CC(=O)N2CC(C)(C)c3c2cc(Cc2ccc(F)cc2)c2nc(C(N)=O)nn32)[C@@H](CN2CCOC[C@H]2C)CN1 [Example 31, 4-(4-fluorobenzyl)-8,8-dimethyl-6-(2-((2R,5R)-5-methyl-2-(((R)-3-methylmorpholino)methyl)piperazin-1-yl)acetyl)-7,8-dihydro-6H-pyrrolo[2,3-e][1,2,4]triazolo[1,5-a]pyridine-2-carboxamide] | 370 | 3
C[C@@H]1CN(CC(=O)N2CC(C)(C)c3c2cc(Cc2ccc(F)cc2)c2cnnn32)[C@@H](CN2CCOC[C@H]2C)CN1 [Compound 128, 1-(4-(4-fluorobenzyl)-8,8-dimethyl-7,8-dihydro-6H-pyrrolo[2,3-e][1,2,3]triazolo[1,5-a]pyridin-6-yl)-2-((2R,5R)-5-methyl-2-(((R)-3-methylmorpholino)methyl)piperazin-1-yl)ethan-1-one] | 12 | 2
C[C@@H]1CN(CC(=O)N2CC(C)(C)c3c2cc(Cc2ccc(F)cc2)c2nc(C(F)(F)F)cn32)[C@@H](CN2CCN(C3COC3)C[C@H]2C)CN1 [Compound 181, 1-(4-(4-fluorobenzyl)-8,8-dimethyl-2-(trifluoromethyl)-7,8-dihydro-6H-imidazo[1,2-a]pyrrolo[2,3-e]pyridin-6-yl)-2-((2R,5R)-5-methyl-2-(((R)-2-methyl-4-(oxetan-3-yl)piperazin-1-yl)methyl)piperazin-1-yl)ethan-1-one] | 97 | 15
C[C@@H]1CN(CC(=O)N2CC(C)(C)c3c2cc([C@@H](O)c2ccc(F)cc2)c2ncnn32)[C@@H](CN2CCOC[C@H]2C)CN1 [Compound 133, 1-(4-((S)-(4-fluorophenyl)(hydroxy)methyl)-8,8-dimethyl-7,8-dihydro-6H-pyrrolo[2,3-e][1,2,4]triazolo[1,5-a]pyridin-6-yl)-2-((2R,5R)-5-methyl-2-(((R)-3-methylmorpholino)methyl)piperazin-1-yl)ethan-1-one] | 210 | 56
C[C@@H]1CN(CC(=O)N2CC(C)(C)c3c2cc(Cc2ccc(F)cc2)c2nn([C@@H]4CCOC4)c(=O)n32)[C@@H](CN2CCOC[C@H]2C)CN1 [Compound 228, 4-(4-fluorobenzyl)-8,8-dimethyl-6-(2-((2R,5R)-5-methyl-2-(((R)-3-methylmorpholino)methyl)piperazin-1-yl)acetyl)-2-((R)-tetrahydrofuran-3-yl)-2,6,7,8-tetrahydro-1H-pyrrolo[2,3-e][1,2,4]triazolo[4,3-a]pyridin-1-one] | 9 | 2

Source: patent US20250179073A1, “TRICYCLIC HETEROCYCLE COMPOUNDS AS IAP ANTAGONISTS” (Ascentage Pharma (Suzhou) Co., Ltd., priority 2022, published 2025)
